Test results reported in patent US4283538A, “Novel triarylmethane compounds” (Polaroid Corporation, priority 1979, dated 1981).

What was measured:
Format in all cases: physicochemical
[1] = Decolorization of methanol solution added to aqueous 1 N KOH
[2] = Transmission densities (R, G, B) of image-receiving components containing the dye before and after bleaching with aqueous 1 N KOH; conditions: for Transmission Density After Bleaching, B / Transmission Density Before Bleaching, B: blue; for Transmission Density After Bleaching, G / Transmission Density Before Bleaching, G: green; for Transmission Density After Bleaching, R / Transmission Density Before Bleaching, R: red
From the text: Using appropriate solvents, samples of the dye compounds prepared in Examples 12, 13, 24 and 26 were incorporated into the image-receiving layer 3 of four image-receiving components comprising the structure set forth below by mixing the solution of each compound with a solution of the graft copolymer and coating this mixture on top of the timing layer to complete each of the image-receiving components.
A transparent 4 mil polyethylene terephthalate film base coated with, in succession:
1. as a polymeric acid layer, a mixture of about 9 parts of a partial butyl ester of polyethylene/maleic anhydride copolymer and 1 part of polyvinyl butyral coated at a coverage of about 2,500 mgs./ft.^2 ;
2. a timing layer containing a 14:1 ratio of a 60-30-4-6 tetrapolymer of butylacrylate, diacetone acrylamide, styrene and methacrylic acid and polyvinyl alcohol at a coverage of 500 mgs./ft.^2 ;
3. a graft copolymer of 4-vinylpyridine and vinylbenzyltrimethylammoniumchloride grafted on hydroxyethyl cellulose in a weight ratio of 2.2/1/2.2, respectively, coated at a coverage of 300 mgs./ft.^2 to provide an imagereceiving layer and containing the selected dye compound at a coverage of 22 mgs./ft.^2.
Each of the image-receiving components containing the respective dye compounds were placed on a piece of gelatin coated Mylar, and the transmission densities for red (R), green (G) and blue (B) were recorded on a transmission densitometer. Then several drops of aqueous 1 N KOH were added to each gelatin sheet, and the image-receiving components were lightly pressed against the gelatin sheets to "bleach" the dye compounds. […]

[3] = Bleaching rate (T1/2) in pH=12 aqueous buffer, visible spectrometer; conditions: selected wavelength for optical density recording, pH=12 buffer
Procedure: Also, the "bleaching" rates for the compounds of Examples 21, 23 and 24 were determined at pH=12 in terms of T1/2. By T1/2 is meant the time measured for one-half of the colored compound to decolorize. In making these determinations, a cell containing about 3 ml of pH=12 buffer (aqueous) was placed in a visible spectrometer. A sample of each compound was dissolved in methanol, and a small amount (less than 0.1 cc) of each solution was injected into the buffer. The optical densities were then recorded at a selected wavelenth value to determine T1/2.

[4] = Persistence of colorlessness on acidification to pH 1 after decolorization in aqueous 1 N sodium hydroxide; conditions: methanol solution decolorized with aqueous 1 N NaOH, then aqueous HCl to pH 1
From the text: As discussed above and also in the aforementioned application, the subject compounds have the ability to decolorize completely and irreversibly in base by undergoing an irreversible cleavage reaction within a predetermined time at a predetermined pH to give a new colorless compound which remains colorless at the pH's normally encountered during processing subsequent to "bleaching" so that the new compound may be retained in a photographic film unit, e.g., a photosensitive element without the possibility of color reappearing in time. In this regard, samples of the compounds prepared in Examples 24 and 26 above were dissolved in a small amount of methanol, and aqueous 1 N sodium hydroxide was added to each solution to decolorize the compound.

[5] = 15 to 60 seconds after aqueous 1 N KOH
[6] = dye 22 mgs./ft.^2 in image-receiving layer
[7] = dye 22 mgs./ft.^2 in image-receiving layer, densitometer set at 0.00 with two gelatin coated mylar
[8] = coating stored for over 3 months
[9] = coating stored for over 3 months, bleaching time about 3 minutes, aqueous 1 N KOH

Row | SMILES | Transmission Density After Bleaching, B [2, 5] | Transmission Density Before Bleaching, B [2, 6] | Transmission Density After Bleaching, G [2, 5] | Transmission Density Before Bleaching, G [2, 6] | Transmission Density After Bleaching, R [2, 5] | Transmission Density Before Bleaching, R [2, 7] | Wavelength (λmax-nm) [3] | other results
1 | CC(=O)N(C)S(=O)(=O)c1ccccc1C(=C1C=C(C(O)(C(F)(F)F)C(F)(F)F)C(=O)c2ccccc21)c1cc2c3c(c1)CCCN3CCC2 [Example 9] | – | – | – | – | – | – | – | time to decolorize [1]: approximately 5 seconds
2 | COC1=CC(=C(c2ccc(N3CCOCC3)cc2)c2ccccc2S(=O)(=O)N(C)C(=O)OCCS(C)(=O)=O)C=C(OC)C1=O [Example 12] | .00 | .45 | .01 | .31 | .02 | .00 | – | –
3 | COC1=CC(=C(c2cc3c4c(c2)CCCN4CCC3)c2ccccc2S(=O)(=O)N(C)C(=O)OCCS(C)(=O)=O)C=C(OC)C1=O [Example 13] | .00 | .09 | .01 | .32 | .01 | .21 | – | –
4 | COC1=CC(=C(c2cc(OC)c(O)c(OC)c2)c2ccccc2S(=O)(=O)N(C)C(=O)OCCS(C)(=O)=O)C=C(OC)C1=O [Example 21] | – | – | – | – | – | – | 640 nm | –
5 | COC1=CC(=C(c2cc(OC)c(O)c(OC)c2)c2ccccc2S(=O)(=O)N(C)C(C)=O)C=C(OC)C1=O [Example 23] | – | – | – | – | – | – | 640 nm | –
6 | CC1=CC(=C(c2cc(C)c(O)c(C)c2)c2ccccc2S(=O)(=O)N(C)C(=O)OCCS(C)(=O)=O)C=C(C)C1=O [Example 24] | .00 | .40 | .00 | .00 | .01 | .00 | 590 nm | color after decolorization and acidification to pH 1 [4]: remained colorless even at pH 1
7 | CN(C(=O)OCCS(C)(=O)=O)S(=O)(=O)c1ccccc1C(=C1C=C(C(O)(C(F)(F)F)C(F)(F)F)C(=O)c2ccccc21)c1cc2c3c(c1)CCCN3CCC2 [Example 26] | – | – | – | – | – | – | – | color after decolorization and acidification to pH 1 [4]: remained colorless even at pH 1; time to decolorize (in words) [1]: substantially instantaneously; Transmission Density Before Bleaching, B [2, 8]: .05; Transmission Density After Bleaching, B [2, 9]: .02; Transmission Density Before Bleaching, G [2, 8]: .06; Transmission Density After Bleaching, G [2, 9]: .00; Transmission Density Before Bleaching, R [2, 8]: .19; Transmission Density After Bleaching, R [2, 9]: .02
